Among the data in PubChem BioAssay (NCI) are GI50 and TGI values, retold here.

Some test systems named below: EKVX NSCLC; MALME-3M melanoma; HOP-92 NSCLC; MOLT-4 leukemia; A549 NSCLC; SK-OV-3 ovarian; NCI-H522 lung; LOX IMVI melanoma; SNB-19 CNS; HL-60(TB) leukemia.
What all share (test): growth of human tumour cells (NCI), 48 h

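Cells were grown in 96-well plates and exposed to each compound for 48 hours at five concentrations; endpoints were interpolated linearly between bracketing concentrations, or set to the highest concentration if not reached. Abbreviation: GI50, concentration required for 50% inhibition of growth. TGI: concentration producing complete growth inhibition.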

On to `O=C1/C(=C/c2ccc([N+](=O)[O-])cc2)COc2ccc(O)cc21`, for which the GI50 in the assay with EKVX NSCLC was 42.7 µM; with MALME-3M melanoma, 13.9 µM; in the assay with HOP-92 NSCLC it was 38.6 µM; in the assay with MOLT-4 leukemia it was 3.11 µM; with A549 NSCLC, 78 µM; in the assay with SK-OV-3 ovarian, over 100 µM. Moreover, the GI50 is 2.05 µM with NCI-H522 lung, 1.68 µM with LOX IMVI melanoma, 4.29 µM with SNB-19 CNS and 2.48 µM in the assay on HL-60(TB) leukemia. The TGI in the assay on EKVX NSCLC is over 100 µM; with MALME-3M melanoma, 75.2 µM; in the assay with HOP-92 NSCLC it was over 100 µM; with MOLT-4 leukemia it was 37.6 µM; in the assay on A549 NSCLC, over 100 µM; with SK-OV-3 ovarian, over 100 µM. Also, the TGI with NCI-H522 lung worked out at 6.05 µM; in the assay on LOX IMVI melanoma it was 3.23 µM; with SNB-19 CNS it was 30.8 µM; in the assay on HL-60(TB) leukemia, 7.92 µM.
With `COc1cc2nc(-c3ccc(C(F)(F)F)cc3)cc(OCCCN3CCCC3)c2cc1OC`, the GI50 in the assay on EKVX NSCLC was 0.848 µM; with MALME-3M melanoma it was 1.66 µM; in the assay on HOP-92 NSCLC, 0.351 µM; with MOLT-4 leukemia, 1.42 µM; in the assay on A549 NSCLC, 0.685 µM; with SK-OV-3 ovarian, 6.65 µM. Also, the GI50 is 1.15 µM in the assay with NCI-H522 lung, 0.116 µM with LOX IMVI melanoma, 5.23 µM in the assay with SNB-19 CNS and 1 µM with HL-60(TB) leukemia. Moreover, the TGI with EKVX NSCLC was 24.5 µM; in the assay with MALME-3M melanoma, 5.59 µM; in the assay on HOP-92 NSCLC, 5.68 µM; with MOLT-4 leukemia, 5.09 µM; in the assay with A549 NSCLC, over 42.7 µM; in the assay on SK-OV-3 ovarian, over 53.4 µM. Moreover, the TGI is 25.8 µM in the assay on NCI-H522 lung, 0.322 µM in the assay on LOX IMVI melanoma, 21.5 µM in the assay on SNB-19 CNS and 5.86 µM in the assay with HL-60(TB) leukemia.
Regarding `CCCCCCCCCCCC1CC(=O)NCCCN(C)CCCCN(C)CCCN1C` (stereo not given), the TGI was determined as 3.2 µM with EKVX NSCLC; 3.33 µM with MALME-3M melanoma; 2.68 µM in the assay with HOP-92 NSCLC; 7.73 µM in the assay with MOLT-4 leukemia; 3.16 µM with A549 NSCLC; 3.2 µM in the assay on SK-OV-3 ovarian. Also, the TGI in the assay with NCI-H522 lung worked out at 3.27 µM; with LOX IMVI melanoma, 2.84 µM; with SNB-19 CNS, 3.1 µM; in the assay with HL-60(TB) leukemia, 5.32 µM.
`Cc1ccc(NC(=O)/C(Cc2cc(=O)oc3cc(O)ccc23)=N\NC(=O)C[N+](C)(C)C)cc1C`: the TGI with EKVX NSCLC, in the assay with MALME-3M melanoma, in the assay with HOP-92 NSCLC, in the assay on MOLT-4 leukemia, in the assay on A549 NSCLC and with SK-OV-3 ovarian was over 100 µM throughout. Also, the TGI with NCI-H522 lung, in the assay on LOX IMVI melanoma, with SNB-19 CNS and in the assay with HL-60(TB) leukemia was over 100 µM throughout.
For `O=C1c2ccccc2-c2c1c1c(NCCCO)nc3ccccc3c1n2Cc1ccccc1`, the GI50 in the assay with EKVX NSCLC is 27.5 µM; in the assay on MALME-3M melanoma, 19 µM; in the assay on HOP-92 NSCLC it was 12.3 µM; with MOLT-4 leukemia, 5.94 µM; in the assay on A549 NSCLC, 29.7 µM; in the assay on SK-OV-3 ovarian, 21.9 µM. Besides, the GI50 with NCI-H522 lung is 26 µM; in the assay on LOX IMVI melanoma, 15.9 µM; with SNB-19 CNS it was 27.8 µM; in the assay with HL-60(TB) leukemia it was 12 µM. Besides, the TGI is 64.4 µM in the assay with EKVX NSCLC; 38.2 µM in the assay on MALME-3M melanoma; 27.6 µM with HOP-92 NSCLC; 42.8 µM in the assay on MOLT-4 leukemia; 75.5 µM with A549 NSCLC; 40.4 µM in the assay with SK-OV-3 ovarian. Also, the TGI stood at 96.3 µM in the assay with NCI-H522 lung, 30.9 µM in the assay with LOX IMVI melanoma, 73.1 µM with SNB-19 CNS and 25.7 µM in the assay with HL-60(TB) leukemia.
On to `COc1ccc2[nH]c(-c3ccc(O)cc3)cc(=O)c2c1`, for which the TGI with EKVX NSCLC was over 31.2 µM; in the assay with MALME-3M melanoma it was over 29.1 µM; in the assay on HOP-92 NSCLC, 43.9 µM; in the assay on MOLT-4 leukemia it was 79.4 µM; in the assay on A549 NSCLC, over 59.4 µM; with SK-OV-3 ovarian it was 7.49 µM. The TGI in the assay on NCI-H522 lung was 1.35 µM; with LOX IMVI melanoma, over 90 µM; in the assay with SNB-19 CNS, over 100 µM; with HL-60(TB) leukemia, 2.16 µM.
